According to BindingDB's records for doi:10.1021/jm950568w (Universita Di Roma, 1996):

The compounds below were run against T1, Gag-Pol polyprotein [588-1027]/[588-1147] (Human immunodeficiency virus 1, UniProt P04585) (assay: HIV RT Assay). Details: pH 7.8; 37 °C.
T1 construct: 588-1027; 588-1147

Question: How did the IC50 turn out when CCOC(=O)c1cccn1S(=O)(=O)c1cc(Cl)ccc1NC=O [Ethyl 1-[(5-Chloro-2-formamidophenyl)sulfonyl]-1Hpyrrole-2-carboxylate] was run?
Answer: > 20 µM

Question: For CCOC(=O)c1cccn1S(=O)(=O)c1cc(Cl)ccc1NC(=O)CC [Ethyl 1-[(5-Chloro-2-propionamidophenyl)sulfonyl]-1H-pyrrole-2-carboxylate], which IC50 is on record?
Answer: > 20 µM

Question: CCOC(=O)c1cccn1S(=O)(=O)c1cc(Cl)ccc1NC(C)=O [ethyl 1-[(5-chloro-2-acetamidobenzene)sulfonyl]-1H-pyrrole-2-carboxylate] was tested. Which IC50 did it give?
Answer: > 20 µM

Question: Which IC50 does the source give for CCOC(=O)CC(=O)Nc1ccc(Cl)cc1S(=O)(=O)n1cccc1C(=O)OCC [ethyl 1-{[5-chloro-2-(ethyl 2-formamidoacetate)benzene]sulfonyl}-1H-pyrrole-2-carboxylate] here?
Answer: > 20 µM

What follows are compounds tested against T2, Gag-Pol polyprotein [613-1167,R896S,E946D,S1117V]/[618-1043,R896S,E946D] (Human immunodeficiency virus 2, UniProt P04584, E946D/R896S/S1117V) (assay: HIV RT Assay). Details: pH 7.8; 37 °C.
T2 construct: 613-1167; 618-1043
T2 sequence (P04584 613-1167, looked up, stated change not applied): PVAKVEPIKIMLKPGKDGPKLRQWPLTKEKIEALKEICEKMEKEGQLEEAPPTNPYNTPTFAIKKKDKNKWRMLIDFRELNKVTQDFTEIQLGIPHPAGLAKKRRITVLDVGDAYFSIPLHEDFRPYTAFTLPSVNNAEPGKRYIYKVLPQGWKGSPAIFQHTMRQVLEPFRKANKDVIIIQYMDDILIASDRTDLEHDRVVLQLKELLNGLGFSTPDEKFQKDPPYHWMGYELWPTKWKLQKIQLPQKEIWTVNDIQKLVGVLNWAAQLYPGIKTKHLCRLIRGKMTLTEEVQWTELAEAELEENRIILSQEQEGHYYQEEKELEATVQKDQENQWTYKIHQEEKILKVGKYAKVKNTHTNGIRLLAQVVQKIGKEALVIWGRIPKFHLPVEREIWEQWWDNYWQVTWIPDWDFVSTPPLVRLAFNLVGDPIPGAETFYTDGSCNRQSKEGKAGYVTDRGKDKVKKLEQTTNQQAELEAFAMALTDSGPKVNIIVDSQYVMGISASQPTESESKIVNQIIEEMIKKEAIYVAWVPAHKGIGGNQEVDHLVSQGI
T2 sequence (P04584 618-1043, looked up, stated change not applied): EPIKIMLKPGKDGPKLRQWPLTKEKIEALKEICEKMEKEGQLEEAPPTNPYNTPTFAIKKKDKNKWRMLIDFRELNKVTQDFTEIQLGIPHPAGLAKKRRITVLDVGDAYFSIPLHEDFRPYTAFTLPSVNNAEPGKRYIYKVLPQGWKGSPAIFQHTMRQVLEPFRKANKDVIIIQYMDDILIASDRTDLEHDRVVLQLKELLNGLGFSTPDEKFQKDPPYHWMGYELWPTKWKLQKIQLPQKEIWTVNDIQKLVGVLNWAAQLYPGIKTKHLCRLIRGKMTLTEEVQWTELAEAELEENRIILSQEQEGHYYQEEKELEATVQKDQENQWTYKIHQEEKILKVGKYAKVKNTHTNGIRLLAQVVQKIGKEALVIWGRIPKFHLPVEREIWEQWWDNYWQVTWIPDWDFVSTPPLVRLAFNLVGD

Question: Cc1ccnc2c1NC(=O)c1cccnc1N2C1CC1 [BI-RG-587] was tested. Which IC50 did it give?
Answer: > 20 µM

Question: CCOC(=O)c1cccn1S(=O)(=O)c1cc(Cl)ccc1N [ethyl 1-[(2-amino-5-chlorobenzene)sulfonyl]-1H-pyrrole-2-carboxylate] was tested. Which IC50 did it give?
Answer: > 20 µM

Question: Which IC50 does the source give for COC(=O)c1cccn1S(=O)(=O)c1cc(Cl)ccc1N [methyl 1-[(2-amino-5-chlorobenzene)sulfonyl]-1H-pyrrole-2-carboxylate] here?
Answer: > 20 µM
